The results in this text go back to patent US20080171662A1, “Aminocarbonyl-Substituted Thiensulfonylamino(Thio)Carbonyl-Triazolin(Ethi)Ones, Processes For Their Preparation And Their Use” (priority 2004, published 2008).

The structures appear in SMILES notation.

For `CCOc1nn(C(=O)NS(=O)(=O)c2c(C(=O)N(C)C)csc2C)c(=O)n1C` [Example 1, 5-ethoxy-4-methyl-2-[(4-dimethylaminocarbonyl-2-methylthien-3-yl)sulfonylaminocarbonyl]-2,4-dihydro-3H-1,2,4-triazol-3-one], the melting point amounted to 162 °C.

The melting point is the temperature, or range, at which the solid turns liquid.
